Experiment [1] addresses S. aureus Alpha hemolysin (Staphylococcus aureus, UniProt P09616). Description: cell-based. Conditions: A549-LDH Assay activity.
Experiment [2] deals with hemolysin alpha from Staphylococcus aureus (Staphylococcus aureus, UniProt P09616). Description: cell-based.

Some results are limits rather than exact numbers.

Sequence of S. aureus Alpha hemolysin (P09616 27-319 limits assumed): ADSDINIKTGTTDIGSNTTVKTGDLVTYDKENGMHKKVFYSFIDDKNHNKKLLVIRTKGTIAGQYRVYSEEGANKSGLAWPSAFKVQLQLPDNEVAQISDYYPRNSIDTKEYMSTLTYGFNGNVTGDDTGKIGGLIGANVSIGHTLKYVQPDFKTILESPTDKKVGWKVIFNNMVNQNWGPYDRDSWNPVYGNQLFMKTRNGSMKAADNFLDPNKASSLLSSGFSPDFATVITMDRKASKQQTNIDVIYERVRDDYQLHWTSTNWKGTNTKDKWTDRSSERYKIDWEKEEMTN
Sequence of hemolysin alpha from Staphylococcus aureus (P09616 27-319 limits assumed): as above

In the case of `Cc1cc2[nH]c(=O)c(=O)[nH]c2cc1S(=O)(=O)Nc1ccc(-c2ccccc2)c(Cl)c1` [Compound 1, N-(2-chloro-[1,1′-biphenyl]-4-yl)-7-methyl-2,3-dioxo-1,2,3,4-tetrahydroquinoxaline-6-sulfonamide], the concentration giving a half-maximal response (EC50) (usually the concentration giving half of the maximal effect) in experiment [1] lay in the range of 30 to 100 nM. Besides, in experiment [2], the IC50 (in general, the concentration needed to halve the response being measured) was below 30 nM.
For `Cc1cc2[nH]c(=O)c(=O)[nH]c2cc1S(=O)(=O)Nc1ccc(-c2ccc(F)c(Cl)c2F)c(Cl)c1` [Compound 2, N-(2,3′-dichloro-2′,4′-difluoro-[1,1′-biphenyl]-4-yl)-7-methyl-2,3-dioxo-1,2,3,4-tetrahydroquinoxaline-6-sulfonamide], in that order: 100 to 1000 nM and below 30 nM.
On the same counts, the results for `Cc1cc2[nH]c(=O)c(=O)[nH]c2cc1S(=O)(=O)Nc1ccc(-c2ccc(F)cc2)c(Cl)c1` [Compound 3, N-(2-chloro-4′-fluoro-[1,1′-biphenyl]-4-yl)-7-methyl-2,3-dioxo-1,2,3,4-tetrahydroquinoxaline-6-sulfonamide] are 30 to 100 nM and below 30 nM.
`Cc1cc2[nH]c(=O)c(=O)[nH]c2cc1S(=O)(=O)Nc1ccc(-c2cccc(N(C)C)c2)c(Cl)c1` [Compound 4, N-(2-chloro-3′-(dimethylamino)-[1,1′-biphenyl]-4-yl)-7-methyl-2,3-dioxo-1,2,3,4-tetrahydroquinoxaline-6-sulfonamide] yielded a concentration for a half-maximal effect (EC50) in experiment [1] of 30 to 100 nM. The compound further came in with an IC50 in experiment [2] below 30 nM.
On the same counts, the results for `Cc1cc2[nH]c(=O)c(=O)[nH]c2cc1S(=O)(=O)Nc1ccc(-c2ccccc2F)c(Cl)c1` [Compound 5, N-(2-chloro-2′-fluoro-[1,1′-biphenyl]-4-yl)-7-methyl-2,3-dioxo-1,2,3,4-tetrahydroquinoxaline-6-sulfonamide] are 30 to 100 nM and below 30 nM.
As to `Cc1cc2[nH]c(=O)c(=O)[nH]c2cc1S(=O)(=O)Nc1ccc(-c2cccc(N3CCCC3)c2)c(Cl)c1` [Compound 6, N-(2-chloro-3′-(pyrrolidin-1-yl)-[1,1′-biphenyl]-4-yl)-7-methyl-2,3-dioxo-1,2,3,4-tetrahydroquinoxaline-6-sulfonamide], the concentration for a half-maximal effect (EC50) in experiment [1] is 100 to 1000 nM. The IC50 in experiment [2] is below 30 nM.
For `Cc1cc2[nH]c(=O)c(=O)[nH]c2cc1S(=O)(=O)Nc1ccc(-c2ccsc2)c(Cl)c1` [Compound 7, N-(3-chloro-4-(thiophen-3-yl)phenyl)-7-methyl-2,3-dioxo-1,2,3,4-tetrahydroquinoxaline-6-sulfonamide], in that order: 100 to 1000 nM and below 30 nM.
For `Cc1cc2[nH]c(=O)c(=O)[nH]c2cc1S(=O)(=O)Nc1ccc(-c2ccc(Cl)cc2)c(Cl)c1` [Compound 8, N-(2,4′-dichloro-[1,1′-biphenyl]-4-yl)-7-methyl-2,3-dioxo-1,2,3,4-tetrahydroquinoxaline-6-sulfonamide], in that order: 100 to 1000 nM and below 30 nM.
On the same counts, the results for `CN(C)c1cccc(-c2ccc(NS(=O)(=O)c3cc4[nH]c(=O)c(=O)[nH]c4cc3Cl)cc2Cl)c1` [Compound 9, 7-chloro-N-(2-chloro-3′-(dimethylamino)-[1,1′-biphenyl]-4-yl)-2,3-dioxo-1,2,3,4-tetrahydroquinoxaline-6-sulfonamide] are 100 to 1000 nM and below 30 nM.
The compound `O=c1[nH]c2cc(F)c(S(=O)(=O)Nc3ccc(-c4ccc5c(c4)NCC5)c(Cl)c3)cc2[nH]c1=O` [Compound 10, N-(3-chloro-4-(indolin-6-yl)phenyl)-7-fluoro-2,3-dioxo-1,2,3,4-tetrahydroquinoxaline-6-sulfonamide] gave a half-maximal effective concentration (EC50) in experiment [1] of 100 to 1000 nM. Moreover, the IC50 in experiment [2] was below 30 nM.
As to `Cc1cc2[nH]c(=O)c(=O)[nH]c2cc1S(=O)(=O)Nc1ccc(-c2ccc(F)c(Cl)c2)c(Cl)c1` [Compound 11, N-(2,3′-dichloro-4′-fluoro-[1,1′-biphenyl]-4-yl)-7-methyl-2,3-dioxo-1,2,3,4-tetrahydroquinoxaline-6-sulfonamide], the concentration for a half-maximal effect (EC50) in experiment [1] was in the range of 100 to 1000 nM. Further, the concentration for half-maximal inhibition (IC50) in experiment [2] was below 30 nM.
On the same counts, the results for `O=c1[nH]c2cc(Cl)c(S(=O)(=O)Nc3ccc(-c4ccc(F)cc4)c(Cl)c3)cc2[nH]c1=O` [Compound 12, 7-chloro-N-(2-chloro-4′-fluoro-[1,1′-biphenyl]-4-yl)-2,3-dioxo-1,2,3,4-tetrahydroquinoxaline-6-sulfonamide] are 100 to 1000 nM and below 30 nM.
On the same counts, the results for `Cc1cc2[nH]c(=O)c(=O)[nH]c2cc1S(=O)(=O)Nc1ccc(-c2ccc3c(c2)NCC3)c(Cl)c1` [Compound 13, N-(3-chloro-4-(indolin-6-yl)phenyl)-7-methyl-2,3-dioxo-1,2,3,4-tetrahydroquinoxaline-6-sulfonamide] are 100 to 1000 nM and below 30 nM.
On the same counts, the results for `O=c1[nH]c2cc(Cl)c(S(=O)(=O)Nc3ccc(-c4ccccc4)c(Cl)c3)cc2[nH]c1=O` [Compound 14, 7-chloro-N-(2-chloro-[1,1′-biphenyl]-4-yl)-2,3-dioxo-1,2,3,4-tetrahydroquinoxaline-6-sulfonamide] are 100 to 1000 nM and below 30 nM.
As for `O=c1[nH]c2cc(Br)c(S(=O)(=O)Nc3ccc(OC(F)(F)F)cc3)cc2[nH]c1=O` [Compound 15, 7-bromo-2,3-dioxo-N-(4-(trifluoromethoxy)phenyl)-1,2,3,4-tetrahydroquinoxaline-6-sulfonamide], the EC50 in experiment [1] lay within 30 to 100 nM. Also, in experiment [2], the 50% inhibitory concentration (IC50) is below 30 nM.
For `Cc1cc2[nH]c(=O)c(=O)[nH]c2cc1S(=O)(=O)Nc1cc(C)c(-c2ccco2)c(C)c1` [Compound 16, N-(4-(furan-2-yl)-3,5-dimethylphenyl)-7-methyl-2,3-dioxo-1,2,3,4-tetrahydroquinoxaline-6-sulfonamide], in that order: below 30 nM and below 30 nM.
On the same counts, the results for `Cc1cc(NS(=O)(=O)c2cc3[nH]c(=O)c(=O)[nH]c3cc2C)ccc1-c1ccccc1` [Compound 17, 7-methyl-N-(2-methyl-[1,1′-biphenyl]-4-yl)-2,3-dioxo-1,2,3,4-tetrahydroquinoxaline-6-sulfonamide] are below 30 nM and below 30 nM.
For `O=c1[nH]c2cc(F)c(S(=O)(=O)Nc3ccc(-c4ccc(F)cc4)c(Cl)c3)cc2[nH]c1=O` [Compound 18, N-(2-chloro-4′-fluoro-[1,1′-biphenyl]-4-yl)-7-fluoro-2,3-dioxo-1,2,3,4-tetrahydroquinoxaline-6-sulfonamide], in that order: 30 to 100 nM and below 30 nM.
With `O=c1[nH]c2cc(Cl)c(S(=O)(=O)Nc3ccc(-c4ccc(F)c(Cl)c4)c(Cl)c3)cc2[nH]c1=O` [Compound 19, 7-chloro-N-(2,3′-dichloro-4′-fluoro-[1,1′-biphenyl]-4-yl)-2,3-dioxo-1,2,3,4-tetrahydroquinoxaline-6-sulfonamide], the EC50 in experiment [1] was in the range of 100 to 1000 nM. This compound returned an IC50 in experiment [2] below 30 nM.
For `CCc1cc2[nH]c(=O)c(=O)[nH]c2cc1S(=O)(=O)Nc1ccc(OC(F)(F)F)cc1` [Compound 20, 7-ethyl-2,3-dioxo-N-(4-(trifluoromethoxy)phenyl)-1,2,3,4-tetrahydroquinoxaline-6-sulfonamide], in that order: 30 to 100 nM and below 30 nM.
As for `O=c1[nH]c2cc(Cl)c(S(=O)(=O)Nc3ccc(-c4cccc(N5CCCC5)c4)c(Cl)c3)cc2[nH]c1=O` [Compound 21, 7-chloro-N-(2-chloro-3′-(pyrrolidin-1-yl)-[1,1′-biphenyl]-4-yl)-2,3-dioxo-1,2,3,4-tetrahydroquinoxaline-6-sulfonamide], the 50% effective concentration (EC50) in experiment [1] lay within 100 to 1000 nM. The same compound displayed an IC50 in experiment [2] below 30 nM.
Compound `Cc1cc2[nH]c(=O)c(=O)[nH]c2cc1S(=O)(=O)Nc1ccc(-c2ccoc2)c(Cl)c1` [Compound 22, N-(3-chloro-4-(furan-3-yl)phenyl)-7-methyl-2,3-dioxo-1,2,3,4-tetrahydroquinoxaline-6-sulfonamide] returned an EC50 in experiment [1] of 100 to 1000 nM. For the same compound, the 50% inhibitory concentration (IC50) in experiment [2] was below 30 nM.
For `Cc1cccc(-c2ccc(NS(=O)(=O)c3cc4[nH]c(=O)c(=O)[nH]c4cc3C)cc2Cl)c1` [Compound 23, N-(2-chloro-3′-methyl-[1,1′-biphenyl]-4-yl)-7-methyl-2,3-dioxo-1,2,3,4-tetrahydroquinoxaline-6-sulfonamide], in that order: 30 to 100 nM and below 30 nM.
For `Cc1cc2[nH]c(=O)c(=O)[nH]c2cc1S(=O)(=O)Nc1ccc(-c2cccs2)c(Cl)c1` [Compound 24, N-(3-chloro-4-(thiophen-2-yl)phenyl)-7-methyl-2,3-dioxo-1,2,3,4-tetrahydroquinoxaline-6-sulfonamide], in that order: 30 to 100 nM and below 30 nM.
On the same counts, the results for `O=c1[nH]c2cc(Cl)c(S(=O)(=O)Nc3ccc(-c4ccccc4F)c(Cl)c3)cc2[nH]c1=O` [Compound 25, 7-chloro-N-(2-chloro-2′-fluoro-[1,1′-biphenyl]-4-yl)-2,3-dioxo-1,2,3,4-tetrahydroquinoxaline-6-sulfonamide] are 100 to 1000 nM and below 30 nM.
Compound `Cc1cc2[nH]c(=O)c(=O)[nH]c2cc1S(=O)(=O)Nc1ccc2c(c1)OC(F)(F)O2` [Compound 241, N-(2,2-difluorobenzo[d][1,3]dioxol-5-yl)-7-methyl-2,3-dioxo-1,2,3,4-tetrahydroquinoxaline-6-sulfonamide] yielded an EC50 in experiment [2] of 100 to 1000 nM.
In experiment [2], `Cc1cc2[nH]c(=O)c(=O)[nH]c2cc1S(=O)(=O)Nc1ccc2c(c1)OCCO2` [Compound 242, N-(2,3-dihydrobenzo[b][1,4]dioxin-6-yl)-7-methyl-2,3-dioxo-1,2,3,4-tetrahydroquinoxaline-6-sulfonamide] gave a concentration for a half-maximal effect (EC50) of 100 to 1000 nM.
For `COc1ccc(-c2ccc(NS(=O)(=O)c3cc4[nH]c(=O)c(=O)[nH]c4cc3C)cc2Cl)cc1C(N)=O` [Compound 395, 5-[2-chloro-4-[(7-methyl-2,3-dioxo-1,4-dihydroquinoxalin-6-yl)sulfonylamino]phenyl]-2-methoxy-benzamide], the EC50 in experiment [2] is 1000 to 3500 nM.
As for `Cc1cc2[nH]c(=O)c(=O)[nH]c2cc1S(=O)(=O)Nc1ccc(-c2ccc(F)cc2)c(S(C)(=O)=O)c1` [Compound 397, N-[4-(4-fluorophenyl)-3-methylsulfonyl-phenyl]-7-methyl-2,3-dioxo-1,4-dihydroquinoxaline-6-sulfonamide], the EC50 in experiment [2] lay within 1000 to 3500 nM.

For the origin of these results see patent US20240376084A1, “INHIBITORS OF ALPHA-HEMOLYSIN OF STAPHYLOCOCCUS AUREUS” (Helmholtz-Zentrum Fur Infektionsforschung GmbH, priority 2021, published 2024).
